Results as given in publication PMC5218480 (PLoS ONE, 2017).

Test system: MV-4-11 cells
Assay: Gene expression microarray analysis (Affymetrix PrimeView) and GSEA
Format: cell-based, human
Design: RFU PODN (11730768_x_at) / Fold change /veh PODN (11730768_x_at) / RFU LINC00158 (11744669_a_at) / Fold change /veh LINC00158 (11744669_a_at) / RFU DUSP10 (11751237_a_at) / Fold change /veh DUSP10 (11751237_a_at) / RFU ID3 (11757404_x_at) / Fold change /veh ID3 (11757404_x_at) / RFU PLEKHG5 (11737974_s_at) / Fold change /veh PLEKHG5 (11737974_s_at) / RFU LRRC4B (11730491_at) / Fold change /veh LRRC4B (11730491_at) / RFU GIMAP4 (11747438_a_at) / Fold change /veh GIMAP4 (11747438_a_at) / RFU KRT8 (11758183_x_at) / Fold change /veh KRT8 (11758183_x_at) / RFU CNN1 (11734310_a_at) / Fold change /veh CNN1 (11734310_a_at) / RFU VPS37D (11726825_at) / Fold change /veh VPS37D (11726825_at) / RFU C10orf10 (11716522_x_at) / Fold change /veh C10orf10 (11716522_x_at) / RFU KIR2DL2 /// KIR2DL4 /// KIR2DL5A /// KIR2DL5B /// KIR2DS1 /// KIR2DS2 /// KIR2DS3 /// KIR2DS4 /// KIR3DL3 /// KIR3DL3 /// KIR3DS1 (11738374_at) / Fold change /veh KIR2DL2 /// KIR2DL4 /// KIR2DL5A /// KIR2DL5B /// KIR2DS1 /// KIR2DS2 /// KIR2DS3 /// KIR2DS4 /// KIR3DL3 /// KIR3DL3 /// KIR3DS1 (11738374_at) / RFU C1QL1 (11718748_at) / Fold change /veh C1QL1 (11718748_at) / RFU TMPRSS4 (11747572_a_at) / Fold change /veh TMPRSS4 (11747572_a_at) / RFU HAMP (11756126_x_at) / Fold change /veh HAMP (11756126_x_at) / RFU RNFT2 (11725882_a_at) / Fold change /veh RNFT2 (11725882_a_at) / RFU NR4A2 (11747474_a_at) / Fold change /veh NR4A2 (11747474_a_at) / RFU ABCC12 (11746883_a_at) / Fold change /veh ABCC12 (11746883_a_at) / RFU TMEM136 (11760407_x_at) / Fold change /veh TMEM136 (11760407_x_at) / RFU CLDN22 /// WWC2 (11732394_at) / Fold change /veh CLDN22 /// WWC2 (11732394_at) / RFU HLA-DPB1 (11760878_x_at) / Fold change /veh HLA-DPB1 (11760878_x_at) / RFU SPINT1 (11716480_a_at) / Fold change /veh SPINT1 (11716480_a_at) / RFU GAP43 (11754022_s_at) / Fold change /veh GAP43 (11754022_s_at) / RFU A4GNT (11735810_at) / Fold change /veh A4GNT (11735810_at) / RFU PRB3 (11715151_x_at) / Fold change /veh PRB3 (11715151_x_at) / RFU TUBB4B (11761932_at) / Fold change /veh TUBB4B (11761932_at) / RFU CAPN14 (11732068_a_at) / Fold change /veh CAPN14 (11732068_a_at) / RFU TMCC2 (11721928_a_at) / Fold change /veh TMCC2 (11721928_a_at) / RFU IRGQ (11745062_a_at) / Fold change /veh IRGQ (11745062_a_at) / RFU FAM174B (11720279_a_at) / Fold change /veh FAM174B (11720279_a_at) / RFU TMPRSS4 (11748680_a_at) / Fold change /veh TMPRSS4 (11748680_a_at) / RFU FAM212B (11763350_a_at) / Fold change /veh FAM212B (11763350_a_at) / RFU PLEKHG5 (11743358_a_at) / Fold change /veh PLEKHG5 (11743358_a_at) / RFU ZSCAN30 (11745921_a_at) / Fold change /veh ZSCAN30 (11745921_a_at) / RFU CMKLR1 (11741424_a_at) / Fold change /veh CMKLR1 (11741424_a_at) / RFU LOC101060620 /// MAPK8IP1 (11723275_at) / Fold change /veh LOC101060620 /// MAPK8IP1 (11723275_at) / RFU SPTSSB (11747773_x_at) / Fold change /veh SPTSSB (11747773_x_at) / RFU PRSS12 (11739890_at) / Fold change /veh PRSS12 (11739890_at) / RFU BIN1 (11741810_x_at) / Fold change /veh BIN1 (11741810_x_at) / RFU WNT11 (11732464_a_at) / Fold change /veh WNT11 (11732464_a_at) / RFU C10orf10 (11716521_a_at) / Fold change /veh C10orf10 (11716521_a_at) / RFU C5orf56 (11738089_at) / Fold change /veh C5orf56 (11738089_at) / RFU CYB561 (11721691_x_at) / Fold change /veh CYB561 (11721691_x_at) / RFU ANKRD19P (11752326_a_at) / Fold change /veh ANKRD19P (11752326_a_at) / RFU OR2T12 /// OR2T33 /// OR2T8 (11738714_s_at) / Fold change /veh OR2T12 /// OR2T33 /// OR2T8 (11738714_s_at) / RFU VCAN (11748164_a_at) / Fold change /veh VCAN (11748164_a_at) / RFU JSRP1 (11732532_at) / Fold change /veh JSRP1 (11732532_at) / RFU KRTAP10-11 (11738290_x_at) / Fold change /veh KRTAP10-11 (11738290_x_at) / RFU MYO3A (11730013_a_at) / Fold change /veh MYO3A (11730013_a_at) / RFU EBF3 (11725865_a_at) / Fold change /veh EBF3 (11725865_a_at) / RFU CAMK2N1 (11719241_x_at) / Fold change /veh CAMK2N1 (11719241_x_at) / RFU C5orf56 (11738088_a_at) / Fold change /veh C5orf56 (11738088_a_at) / RFU OLFML3 (11715873_a_at) / Fold change /veh OLFML3 (11715873_a_at) / RFU LOC100653217 /// NTM (11731650_a_at) / Fold change /veh LOC100653217 /// NTM (11731650_a_at) / RFU MAPK11 (11762145_a_at) / Fold change /veh MAPK11 (11762145_a_at) / RFU FIZ1 (11724087_x_at) / Fold change /veh FIZ1 (11724087_x_at) / RFU OASL (11726364_x_at) / Fold change /veh OASL (11726364_x_at) / RFU SOX15 (11748057_x_at) / Fold change /veh SOX15 (11748057_x_at) / RFU CD79A (11719716_a_at) / Fold change /veh CD79A (11719716_a_at) / RFU HIST1H1D (11736915_at) / Fold change /veh HIST1H1D (11736915_at) / RFU CASKIN2 (11723855_a_at) / Fold change /veh CASKIN2 (11723855_a_at) / RFU LOC730098 (11760151_x_at) / Fold change /veh LOC730098 (11760151_x_at) / RFU OR4N2 (11742367_at) / Fold change /veh OR4N2 (11742367_at) / RFU PRRT2 (11749266_a_at) / Fold change /veh PRRT2 (11749266_a_at) / RFU SNX32 (11753110_a_at) / Fold change /veh SNX32 (11753110_a_at) / RFU CDHR5 (11726645_a_at) / Fold change /veh CDHR5 (11726645_a_at) / RFU RCAN1 (11760418_a_at) / Fold change /veh RCAN1 (11760418_a_at) / RFU FAM167A (11723789_a_at) / Fold change /veh FAM167A (11723789_a_at) / RFU FAM26E (11764081_at) / Fold change /veh FAM26E (11764081_at) / RFU ISYNA1 (11749810_s_at) / Fold change /veh ISYNA1 (11749810_s_at) / RFU ACY1 (11761880_at) / Fold change /veh ACY1 (11761880_at) / RFU 11764098_at / Fold change /veh 11764098_at / RFU SAMD14 (11745864_x_at) / Fold change /veh SAMD14 (11745864_x_at) / RFU NPB (11741838_a_at) / Fold change /veh NPB (11741838_a_at) / RFU TMPRSS6 (11731388_a_at) / Fold change /veh TMPRSS6 (11731388_a_at) / RFU KRTAP10-2 (11738614_at) / Fold change /veh KRTAP10-2 (11738614_at) / RFU ARHGAP8 /// PRR5-ARHGAP8 (11727945_x_at) / Fold change /veh ARHGAP8 /// PRR5-ARHGAP8 (11727945_x_at) / RFU KRTAP5-7 /// NADSYN1 (11734609_at) / Fold change /veh KRTAP5-7 /// NADSYN1 (11734609_at) / RFU RASL12 (11751679_a_at) / Fold change /veh RASL12 (11751679_a_at) / RFU CDKN2B (11736163_a_at) / Fold change /veh CDKN2B (11736163_a_at) / RFU PRF1 (11729649_at) / Fold change /veh PRF1 (11729649_at) / RFU, ZNF638 /// ZNF638-IT1 / Fold change vs veh, ZNF638 /// ZNF638-IT1 / RFU, PANK3 / Fold change vs veh, PANK3 / RFU, SH3YL1 / Fold change vs veh, SH3YL1 / RFU, ZEB2 / Fold change vs veh, ZEB2 / RFU, NRIP1 / Fold change vs veh, NRIP1 / RFU, PTTG1IP / Fold change vs veh, PTTG1IP / RFU, CAPN2 / Fold change vs veh, CAPN2 / RFU, MED14 / Fold change vs veh, MED14 / RFU, SNORA58 / Fold change vs veh, SNORA58 / RFU, C1orf63 / Fold change vs veh, C1orf63 / RFU, LRRFIP1 / Fold change vs veh, LRRFIP1 / RFU, NDUFAF7 / Fold change vs veh, NDUFAF7 / RFU, SLC12A2 / Fold change vs veh, SLC12A2 / RFU, IBTK / Fold change vs veh, IBTK / RFU, ESF1 / Fold change vs veh, ESF1 / Fold change vs veh, TMEM50B / RFU, TAOK1 / Fold change vs veh, TAOK1 / RFU, ACBD3 / Fold change vs veh, ACBD3 / RFU, TMA16 / Fold change vs veh, TMA16 / RFU, RWDD3 / Fold change vs veh, RWDD3 / RFU, BCAT1 / Fold change vs veh, BCAT1 / RFU, EDEM3 / Fold change vs veh, EDEM3 / RFU, TMEM33 / Fold change vs veh, TMEM33 / RFU, WDR75 / Fold change vs veh, WDR75 / RFU, AHCTF1 / Fold change vs veh, AHCTF1 / RFU, TFRC / Fold change vs veh, TFRC / RFU, ZDHHC17 / Fold change vs veh, ZDHHC17 / RFU, NOM1 / Fold change vs veh, NOM1 / RFU, ARL8B / Fold change vs veh, ARL8B / RFU, ZBTB11 / Fold change vs veh, ZBTB11 / RFU, TAMM41 / Fold change vs veh, TAMM41 / RFU, KIAA1704 /// LOC100996395 / Fold change vs veh, KIAA1704 /// LOC100996395 / RFU, ING1 / Fold change vs veh, ING1 / RFU, TRMT61B / Fold change vs veh, TRMT61B / RFU, FUBP3 / Fold change vs veh, FUBP3 / RFU, TP53 / Fold change vs veh, TP53 / RFU, TNKS2 / Fold change vs veh, TNKS2 / RFU, ZFP14 / Fold change vs veh, ZFP14 / RFU, ACTR2 / Fold change vs veh, ACTR2 / RFU, PPP3R1 / Fold change vs veh, PPP3R1 / RFU, PIK3R1 / Fold change vs veh, PIK3R1 / RFU, HNRNPA1 / Fold change vs veh, HNRNPA1 / RFU, RNF170 / Fold change vs veh, RNF170 / RFU, ZNF28 / Fold change vs veh, ZNF28 / RFU, RNGTT / Fold change vs veh, RNGTT / RFU, OGT / Fold change vs veh, OGT / RFU, BRD1 / Fold change vs veh, BRD1 / RFU, MARS / Fold change vs veh, MARS / RFU, ZNF655 / Fold change vs veh, ZNF655 / RFU, FAHD1 / Fold change vs veh, FAHD1 / RFU, BDP1 / Fold change vs veh, BDP1 / RFU, LRRCC1 / Fold change vs veh, LRRCC1 / RFU, ARID1A / Fold change vs veh, ARID1A / RFU, ZNF146 / Fold change vs veh, ZNF146 / RFU, ZNF330 / Fold change vs veh, ZNF330 / RFU, GPN3 / Fold change vs veh, GPN3 / RFU, C9orf123 / Fold change vs veh, C9orf123 / RFU, N4BP2L2 / Fold change vs veh, N4BP2L2 / RFU, ARFIP1 / Fold change vs veh, ARFIP1 / RFU, FAM179B / Fold change vs veh, FAM179B / RFU, BCL10 / Fold change vs veh, BCL10 / RFU, UHRF1BP1L / Fold change vs veh, UHRF1BP1L / RFU, BET1 / Fold change vs veh, BET1 / RFU, CNOT2 / Fold change vs veh, CNOT2 / RFU, ZNF268 / Fold change vs veh, ZNF268 / Fold change vs veh, ZNF507 / RFU, DGCR2 / Fold change vs veh, DGCR2 / RFU, WDSUB1 / Fold change vs veh, WDSUB1 / Fold change vs veh, HSP90B1 /// MIR3652 / RFU, ADSS / Fold change vs veh, ADSS / RFU, GK / Fold change vs veh, GK / RFU, ZNF148 / Fold change vs veh, ZNF148 / RFU, TAF9 / Fold change vs veh, TAF9 / RFU, SLC1A5 / Fold change vs veh, SLC1A5 / RFU, SLMO2 / Fold change vs veh, SLMO2 / RFU, ABCC4 / Fold change vs veh, ABCC4 / RFU, LOC101060439 /// RAP1B / Fold change vs veh, LOC101060439 /// RAP1B / RFU, RFX7 / Fold change vs veh, RFX7 / RFU, GTPBP10 / Fold change vs veh, GTPBP10 / RFU, CNEP1R1 / Fold change vs veh, CNEP1R1 / RFU, BIVM-ERCC5 /// ERCC5 / Fold change vs veh, BIVM-ERCC5 /// ERCC5 / RFU, ILF3 / Fold change vs veh, ILF3 / RFU 11762660_at / Fold change /veh 11762660_at / RFU VCAN (11757783_s_at) / Fold change /veh VCAN (11757783_s_at) / RFU DDX43 (11728927_at) / Fold change /veh DDX43 (11728927_at) / RFU KRT8 (11758188_x_at) / Fold change /veh KRT8 (11758188_x_at) / RFU NKD1 (11759106_at) / Fold change /veh NKD1 (11759106_at) / RFU SRD5A1 (11742802_a_at) / Fold change /veh SRD5A1 (11742802_a_at) / RFU TPSAB1 /// TPSB2 (11721975_s_at) / Fold change /veh TPSAB1 /// TPSB2 (11721975_s_at) / RFU GSTM3 (11746129_a_at) / Fold change /veh GSTM3 (11746129_a_at) / RFU IL23R (11737362_x_at) / Fold change /veh IL23R (11737362_x_at) / RFU TMEM51 (11727254_a_at) / Fold change /veh TMEM51 (11727254_a_at) / RFU PIWIL2 (11732686_x_at) / Fold change /veh PIWIL2 (11732686_x_at) / RFU ORM1 (11744905_x_at) / Fold change /veh ORM1 (11744905_x_at) / RFU CCDC152 (11743942_at) / Fold change /veh CCDC152 (11743942_at) / RFU ECM1 (11717891_a_at) / Fold change /veh ECM1 (11717891_a_at) / RFU IL23R (11748794_a_at) / Fold change /veh IL23R (11748794_a_at) / RFU TNFAIP8L3 (11732012_x_at) / Fold change /veh TNFAIP8L3 (11732012_x_at) / RFU MBOAT4 (11741988_at) / Fold change /veh MBOAT4 (11741988_at) / RFU 11764193_at / Fold change /veh 11764193_at / RFU TMEM53 (11763286_at) / Fold change /veh TMEM53 (11763286_at) / RFU MAGEB2 (11727129_at) / Fold change /veh MAGEB2 (11727129_at) / RFU TMEM200A (11744735_a_at) / Fold change /veh TMEM200A (11744735_a_at) / RFU CCDC152 (11751479_a_at) / Fold change /veh CCDC152 (11751479_a_at) / RFU FAM211A (11726209_a_at) / Fold change /veh FAM211A (11726209_a_at) / RFU RGS16 (11746705_a_at) / Fold change /veh RGS16 (11746705_a_at) / RFU VCAN (11755009_s_at) / Fold change /veh VCAN (11755009_s_at) / RFU RHOB (11743442_s_at) / Fold change /veh RHOB (11743442_s_at) / RFU RGS16 (11720943_a_at) / Fold change /veh RGS16 (11720943_a_at) / RFU RGS16 (11720944_at) / Fold change /veh RGS16 (11720944_at) / RFU, VPS4B / Fold change vs veh, VPS4B / RFU, CREB1 / Fold change vs veh, CREB1 / RFU, DNAJC13 / Fold change vs veh, DNAJC13 / RFU, GNAQ / Fold change vs veh, GNAQ / RFU, CDK5R1 / Fold change vs veh, CDK5R1 / RFU, ZRANB3 / Fold change vs veh, ZRANB3 / RFU, CUL4A / Fold change vs veh, CUL4A / RFU, CCNY / Fold change vs veh, CCNY / RFU, UFL1 / Fold change vs veh, UFL1 / RFU, COG3 / Fold change vs veh, COG3 / RFU, DIAPH2 / Fold change vs veh, DIAPH2 / RFU, SKA2 / Fold change vs veh, SKA2 / RFU, AFF3 / Fold change vs veh, AFF3 / RFU, LMF1 / Fold change vs veh, LMF1 / RFU, IPO11 / Fold change vs veh, IPO11 / RFU, DFFB / Fold change vs veh, DFFB / RFU, FOXP1 / Fold change vs veh, FOXP1 / RFU, CARD8 / Fold change vs veh, CARD8 / RFU, STRN3 / Fold change vs veh, STRN3 / RFU, ADK / Fold change vs veh, ADK / RFU, RASSF2 / Fold change vs veh, RASSF2 / RFU, WIPF1 / Fold change vs veh, WIPF1 / RFU, LARP1B / Fold change vs veh, LARP1B / RFU, RASA1 / Fold change vs veh, RASA1 / RFU, RB1 / Fold change vs veh, RB1 / RFU, PPFIA1 / Fold change vs veh, PPFIA1 / RFU, MAT2A / Fold change vs veh, MAT2A / RFU, CCT5 / Fold change vs veh, CCT5 / RFU, WDR92 / Fold change vs veh, WDR92 / RFU, CUX1 / Fold change vs veh, CUX1 / RFU, TTC7A / Fold change vs veh, TTC7A / RFU, TMEM135 / Fold change vs veh, TMEM135 / RFU, DEPTOR / Fold change vs veh, DEPTOR / RFU, CPM / Fold change vs veh, CPM / RFU, DNAJB6 / Fold change vs veh, DNAJB6 / RFU, CACNA2D3 / Fold change vs veh, CACNA2D3 / RFU, DTX4 / Fold change vs veh, DTX4 / RFU, TFCP2 / Fold change vs veh, TFCP2 / RFU, GMCL1 /// GMCL1P1 / Fold change vs veh, GMCL1 /// GMCL1P1 / RFU, AEBP2 / Fold change vs veh, AEBP2 / RFU, SNHG1 /// SNORD22 /// SNORD25 /// SNORD26 /// SNORD27 /// SNORD28 /// SNORD29 /// SNORD31 / Fold change vs veh, SNHG1 /// SNORD22 /// SNORD25 /// SNORD26 /// SNORD27 /// SNORD28 /// SNORD29 /// SNORD31 / Fold change (Aza/veh), C12orf56 (ProbeSet 11735607_a_at) / Fold change (ACY-1035/veh), C12orf56 (ProbeSet 11735607_a_at) / Fold change (Aza/veh), FGFR1OP (ProbeSet 11751329_s_at) / Fold change (ACY-1035/veh), FGFR1OP (ProbeSet 11751329_s_at) / Fold change (Aza/veh), VPS36 (ProbeSet 11739960_a_at) / Fold change (ACY-1035/veh), VPS36 (ProbeSet 11739960_a_at) / RFU SYPL1 (11715823_x_at) / Fold change /veh SYPL1 (11715823_x_at) / RFU IGFBP7 (11715501_s_at) / Fold change /veh IGFBP7 (11715501_s_at) / RFU REEP3 (11722064_at) / Fold change /veh REEP3 (11722064_at) / RFU IGLL1 (11728026_x_at) / Fold change /veh IGLL1 (11728026_x_at): dose or concentration left out as unconfirmed
Conditions: ProbeSet 11722302_a_at; LIST B

SMILES: Nc1ccc(-c2cccs2)cc1NC(=O)c1ccc2c(c1)cc(C1CC1)n2CCN1CCOCC1 [ACY-1035]
- Fold change vs veh, LRRFIP1: 0.98
